{"source": "patent US20170202932A1", "about": "“METHODS FOR INHIBITING NEURON APOPTOSIS AND NECROSIS” (NEWSOUTH INNOVATIONS PTY LIMITED, priority 2012, published 2017)", "key": {"[1]": {"target": "T1, Purkinje cell TRPC3 channels (Mus musculus, UniProt Q9QZC1, DEL811-838)", "T1 construct": "from tissue; host or cells: parasagittal cerebellar brain slices, C129-SvEv mice, Purkinje neurons", "T1 sequence (Q9QZC1 with tags, fused parts or gaps DEL811-838)": "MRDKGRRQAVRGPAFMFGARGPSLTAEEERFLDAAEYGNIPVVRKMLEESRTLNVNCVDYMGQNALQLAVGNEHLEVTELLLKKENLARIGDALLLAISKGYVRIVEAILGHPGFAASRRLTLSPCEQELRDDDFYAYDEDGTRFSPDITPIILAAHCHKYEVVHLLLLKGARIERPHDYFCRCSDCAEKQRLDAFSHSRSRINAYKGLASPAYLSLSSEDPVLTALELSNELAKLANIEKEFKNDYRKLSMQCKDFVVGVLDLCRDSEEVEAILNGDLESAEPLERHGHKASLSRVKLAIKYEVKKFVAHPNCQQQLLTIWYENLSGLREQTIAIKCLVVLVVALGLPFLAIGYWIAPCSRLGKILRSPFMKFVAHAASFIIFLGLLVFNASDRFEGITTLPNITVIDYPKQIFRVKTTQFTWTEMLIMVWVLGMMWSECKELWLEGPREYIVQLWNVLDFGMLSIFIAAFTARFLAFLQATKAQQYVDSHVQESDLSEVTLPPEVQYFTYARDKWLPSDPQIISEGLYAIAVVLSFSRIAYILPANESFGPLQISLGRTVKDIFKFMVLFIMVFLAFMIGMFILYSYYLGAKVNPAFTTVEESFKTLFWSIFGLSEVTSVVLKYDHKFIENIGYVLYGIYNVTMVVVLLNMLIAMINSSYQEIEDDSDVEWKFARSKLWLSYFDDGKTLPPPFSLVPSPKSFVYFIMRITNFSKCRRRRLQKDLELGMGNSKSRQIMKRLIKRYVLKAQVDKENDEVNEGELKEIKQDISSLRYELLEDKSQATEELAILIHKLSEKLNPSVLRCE", "experiment": "Whole-cell voltage clamp of DHPG-evoked inward current in Purkinje cells of cerebellar brain slices", "type": "cell-based", "procedure": "TRPC3c-mediated current in cerebellar Purkinje cells was then assessed. Parasagittal cerebellar brain slices (400 μm) were prepared using standard techniques (Power and Sah, (2007) J. Physiol. 580:835-57). Mice (C129-SvEv strain, 4-8 weeks old) were anaesthetized with pentobarbital and decapitated. The brain was removed and submerged in an ice cold modified artificial cerebral spinal fluid (ACSF) solution containing 119 mM NaCl, 2.5 mM KCl, 3.3 mM MgCl2, 0.5 mM CaCl2, 1.0 mM Na2PO4, 26.2 mM NaHCO3, 11 mM glucose, equilibrated with 95% CO2, 5% 02. Slices were cut with a VT1200 vibratome (Leica, Germany) and were allowed to recover for at least 1 h at room temperature in a standard ACSF solution containing 119 mM NaCl, 2.5 mM KCl, 1.3 mM MgCl2, 2.5 mM CaCl2, 1.0 mM Na2PO4, 26.2 mM NaHCO3, 11 mM glucose, equilibrated with 95% CO2, 5% O2.\nFor recording, slices were transferred to the stage of a Zeiss Examiner D1 microscope and continuously perfused with ACSF heated to 30° C. Whole-cell patch-clamp recordings were made from the soma of Purkinje neurons identified using infrared differential interference contrast videomicroscopy. Patch pipettes (3-5 MΩ) were filled with an internal solution containing 135 mM Cesium methanesulfonate, 8 mM NaCl, 10 mM HEPES, 2 mM Mg2ATP, 0.3 mM Na3GTP, 0.1 spermine (pH 7.3 with KOH, osmolarity 290-300 mosmol l^−1). Alexa 594 (30 μM; Invitrogen, U.S.A.) was added to the internal solution to visualise the dendritic tree. Whole-cell currents at a holding potential of −70 mV were amplified with an Axopatch 2B amplifier (Molecular Devices, U.S.A.), filtered at 5 kHz and digitized at 20 kHz with a Digidata1440 (Molecular Devices), and controlled using pClamp 10.2 Software (Molecular Devices). Whole-field fluorescence measurements were made with a 40× water immersion objective (NA 1.0; Zeiss, Germany) using a F43 filter block; excitation 545/25 nm; dichroic 570 nm, emission 605/70 nm. Images were acquired with a cooled CCD camera (ProgRes MF-Cool, Jenoptik, Germany) DHPG (50 μM) was applied onto the dendritic field by focal pressure application (in ACSF) through a patch pipette."}, "src tyrosine kinase": {"target": "src tyrosine kinase (Homo sapiens, UniProt P12931)", "sequence (P12931 whole entry)": "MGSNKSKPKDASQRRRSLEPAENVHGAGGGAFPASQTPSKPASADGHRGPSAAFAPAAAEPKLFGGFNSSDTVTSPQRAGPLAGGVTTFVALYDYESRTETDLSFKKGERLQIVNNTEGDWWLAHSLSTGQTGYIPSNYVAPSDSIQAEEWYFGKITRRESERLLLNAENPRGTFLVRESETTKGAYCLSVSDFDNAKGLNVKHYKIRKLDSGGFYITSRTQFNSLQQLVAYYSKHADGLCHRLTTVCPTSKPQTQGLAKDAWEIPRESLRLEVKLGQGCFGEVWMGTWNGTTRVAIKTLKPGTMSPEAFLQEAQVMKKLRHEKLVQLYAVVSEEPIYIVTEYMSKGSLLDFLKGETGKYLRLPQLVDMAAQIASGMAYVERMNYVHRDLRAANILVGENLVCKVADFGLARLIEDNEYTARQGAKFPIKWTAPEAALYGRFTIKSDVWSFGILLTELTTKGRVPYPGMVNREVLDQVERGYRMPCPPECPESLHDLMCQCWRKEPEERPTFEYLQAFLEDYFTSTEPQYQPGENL", "settings": "cited from earlier work"}}, "data": [{"smiles": "O=c1c(-c2ccc(O)cc2)coc2cc(O)cc(O)c12", "note": "[genistein, 4′, 5,7-trihydroxyisoflavone]", "values": [{"measurement": "peak of the DHPG-evoked current", "setting": "[1]; 15 min after genistein 100 μM, before genistein −400±55 pA", "value": "−77±50", "unit": "pA"}, {"measurement": "integrated area of the DHPG-evoked current (net charge)", "setting": "[1]; after genistein 100 μM, before genistein −878±11 pC", "value": "−74±105", "unit": "pC"}, {"measurement": "time over which block of the current was produced", "setting": "[1]; genistein 100 μM bath application", "value": "10 to 15", "unit": "min"}, {"measurement": "reduction of DHPG-evoked Purkinje cell inward current", "setting": "[1]; genistein 100 μM, DHPG 50 μM, holding −70 mV, n=3", "value": "90±12", "unit": "%"}, {"measurement": "src tyrosine kinase-mediated phosphorylation of TRPC3", "setting": "src tyrosine kinase", "value": "inhibit"}]}]}
